These are literature values, as cited in patent publication EP4574138A1, “A TABLET COMPOSITION COMPRISING IVACAFTOR” (Sanovel Ilac Sanayi Ve Ticaret Anonim Sirketi, priority 2023, dated 2025).

Some results are limits rather than exact numbers.

For this data set the following is noted: background description of the drug substance.

With `CC(C)(C)c1cc(C(C)(C)C)c(NC(=O)c2c[nH]c3ccccc3c2=O)cc1O` [Ivacaftor, N-(2,4-di-tert-butyl-5-hydroxyphenyl)-1,4-dihydro-4-oxoquinoline-3-carboxamide], the “solubility in water (practically insoluble in water)” value is listed as less than 0.05 microgram/mL.
